Test results from patent US4518581A, “Imparting low- or anti-cariogenic property to orally-usable products” (Kabushiki Kaisha Hayashibara Seibutsu Kagaku Kenkyujo, priority 1981, dated 1985).

Key:
[1] = test system: Streptococcus mutans 6715 strain; assay: Organic acid formation from saccharides by Streptococcus mutans cells, pH-measurement (Experiment 4); assay type: cell-based; conditions: 37° C., 30 minutes; for organic acid formation from the saccharide: Streptococcus mutans 6715 cells; for pH-Level of the reaction mixture (organic acid formation): cell suspension, Stephan's buffer (pH 7.0), saccharide solution
Protocol: Organic acid formation from some saccharides by Streptococcus mutans was tested: Streptococcus mutans 6715 strain was cultivaed similarly as in EXPERIMENT 1, and the cells, obtained by centrifuging the culture, were washed with 0.9 w/v % sodium chloride solution, followed by additional centrifugation. Two ml of a mixture solution, consisting of 0.2 ml of the cell suspension, prepared from about 100 ml of the culture, 1.5 ml of Stephan's buffer, and 0.3 ml aqueous solution of each saccharide as listed in TABLE II, was incubated at 37° C. for 30 minutes, followed by pH-measurement of the reaction mixture. The Stephan's buffer was prepared by the method as reported by R. M. Stephan et al., Journal of Dental Research, Vol.26, pp.15-41 (1947): One ml of Solution I, prepared by dissolving 17.89 g Na2 HPO4. 12H2 O, 7.92 g KOH and 6.81 g KH2 PO4 in water to give a final volume of 100 ml, was placed in a 100-ml volumetric flask, and mixed with about 90 ml of water. To the flask was added 1 ml of Solution II, prepared by dissolving 4.54 g KH2 PO4, 0.32 g MgSO4.7H2 O, 0.57 g CaSO4.2H2 O and 10 ml of 3.5% hydrochloric acid solution in water to give a final volume of 100 ml. This mixture was diluted with additional water to obtain 100 ml of Stephan's buffer (pH 7.0).
The results are given in TABLE II, wherein the organic acid formation from the saccharides can be estimated by the pH-values.

[2] = target: T1, water-insoluble glucan producing enzyme (Streptococcus downei, UniProt P27470); assay: Effect of saccharides on formation of water-insoluble glucan from sucrose (Experiment 3); assay type: biochemical, Streptococcus mutans 6715 strain; conditions: 1 ml 4 w/v % sucrose plus 1 ml 4 w/v % saccharide, 0.02 units enzyme, 37° C., 16 hours; sucrose control 300
T1 construct: endogenous in cells; host or cells: Streptococcus mutans 6715 strain (today S. sobrinus), culture supernatant, ammonium sulfate precipitate, dialyzed
Protocol: After completion of the cultivation, the culture was separated into cell precipitant and supernatant. Thereafter, to the supernatant was added with ammonium sulfate to give 60% saturation, and the resultant precipitant was dialyzed against 0.1M phosphate buffer (pH 7.2) to obtain an aqueous solution containing the enzyme.
The titers of the enzyme were assayed as follows: A mixture solution, consisting of 1 ml of 0.2M aqueous sucrose solution, 1 ml of water, 1 ml of 0.1M phosphate buffer containing 0.05 w/v % NaN3, and 0.5 ml of the enzyme solution (below 0.05 units), is incubated at 37° C. for 9 hours, followed by centrifugation of the reaction mixture. The resultant precipitant is mixed with 4 ml of 0.5N sodium hydroxide solution, and then incubated at this temperature for an additional one hour to dissolve the precipitant. The amount of water-insoluble glucan formed during the enzymatic reaction is then measured. One unit of the enzyme is defined as the amount of enzyme that transfers 1 μmole glucose from sucrose to the water-insoluble glucan in one minute.
Effects of some saccharides on the formation of water-insoluble glucan were tested: Water-insoluble glucan formation and inhibition thereof were determined according to the enzyme assay method as described in EXPERIMENT 1, except that the mixture solution contained sucrose, or sucrose and each saccharide as listed in TABLE I. The experiment was carried out as follows: A mixture solution, consisting of 1 ml of 4 w/v % aqueous sucrose solution, 1 ml of 4 w/v % aqueous solution of each saccharide as listed in TABLE I, 1.5 ml of 0.1M phosphate buffer containing 0.05 w/v % NaN3, and 0.5 ml of the enzyme solution (0.02 units), was incubated at 37° C. for 16 hours, and the water-insoluble glucan formation in the reaction mixture was determined according to the enzyme assy method.
In a control experiment, 1 ml of the above described saccharide solution was replaced with the same amount of water.
The inhibition degree was calculated with following equation:
Inhibition degree (%)=100-A/B×100
where A and B are respective amounts of the water-insoluble glucan formed (μg/ml) when the mixture solution contained sucrose or sucrose and each of the saccharides.

[3] = target: T1, water-insoluble glucan producing enzyme; assay: as above; assay type: biochemical, Streptococcus mutans 6715 strain; conditions: saccharide reduced to 10% against sucrose: 1 ml 4 w/v % sucrose plus 1 ml 0.4 w/v % saccharide, 37° C., 16 hours

T1 sequence (P27470 39-1592): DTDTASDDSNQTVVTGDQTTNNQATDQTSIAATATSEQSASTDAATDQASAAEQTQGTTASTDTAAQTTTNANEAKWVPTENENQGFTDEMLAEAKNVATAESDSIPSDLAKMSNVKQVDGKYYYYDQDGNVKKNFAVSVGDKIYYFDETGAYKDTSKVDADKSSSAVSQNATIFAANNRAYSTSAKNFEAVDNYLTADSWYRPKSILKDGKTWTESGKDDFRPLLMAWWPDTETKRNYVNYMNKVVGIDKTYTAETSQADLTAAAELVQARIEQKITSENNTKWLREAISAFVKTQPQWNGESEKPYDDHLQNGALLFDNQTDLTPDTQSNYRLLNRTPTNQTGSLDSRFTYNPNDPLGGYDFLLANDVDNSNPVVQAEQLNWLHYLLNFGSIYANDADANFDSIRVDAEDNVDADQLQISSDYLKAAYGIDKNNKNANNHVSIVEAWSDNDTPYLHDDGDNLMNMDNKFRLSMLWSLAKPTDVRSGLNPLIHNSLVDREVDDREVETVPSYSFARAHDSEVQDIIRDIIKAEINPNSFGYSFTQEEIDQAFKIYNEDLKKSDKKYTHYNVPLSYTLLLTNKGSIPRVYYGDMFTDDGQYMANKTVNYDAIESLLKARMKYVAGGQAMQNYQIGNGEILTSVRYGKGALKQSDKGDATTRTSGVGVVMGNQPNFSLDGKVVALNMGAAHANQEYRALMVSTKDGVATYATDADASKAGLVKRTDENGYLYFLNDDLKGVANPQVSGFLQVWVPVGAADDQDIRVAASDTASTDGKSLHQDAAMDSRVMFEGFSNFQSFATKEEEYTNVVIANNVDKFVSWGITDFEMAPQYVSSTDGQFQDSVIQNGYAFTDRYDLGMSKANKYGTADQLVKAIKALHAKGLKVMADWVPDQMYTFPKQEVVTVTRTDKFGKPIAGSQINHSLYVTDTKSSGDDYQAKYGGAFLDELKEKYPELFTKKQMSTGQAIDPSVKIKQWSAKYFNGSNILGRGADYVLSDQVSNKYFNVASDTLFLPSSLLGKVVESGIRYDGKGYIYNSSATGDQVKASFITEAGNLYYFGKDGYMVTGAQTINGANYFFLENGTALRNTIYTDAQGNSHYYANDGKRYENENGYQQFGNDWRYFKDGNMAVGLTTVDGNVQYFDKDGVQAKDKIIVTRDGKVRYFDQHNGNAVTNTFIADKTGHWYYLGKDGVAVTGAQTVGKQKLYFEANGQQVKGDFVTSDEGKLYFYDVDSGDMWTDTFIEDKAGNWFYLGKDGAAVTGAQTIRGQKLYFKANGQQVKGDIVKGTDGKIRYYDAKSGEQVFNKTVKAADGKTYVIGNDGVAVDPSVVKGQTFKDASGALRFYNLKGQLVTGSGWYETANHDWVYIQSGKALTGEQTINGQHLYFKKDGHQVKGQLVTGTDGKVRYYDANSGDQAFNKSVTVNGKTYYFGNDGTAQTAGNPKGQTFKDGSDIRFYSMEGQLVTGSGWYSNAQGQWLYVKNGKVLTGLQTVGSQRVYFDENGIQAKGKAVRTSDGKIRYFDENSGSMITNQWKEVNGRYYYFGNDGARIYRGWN

| SMILES | organic acid formation from the saccharide [1] | pH-Level of the reaction mixture (organic acid formation) [1] | A: amounts of water-insoluble glucan formed [2] | C: inhibition degree of water-insoluble glucan formation [3] | C: inhibition degree of water-insoluble glucan formation ([3]; listed as isomaltotriose) | C: inhibition degree of water-insoluble glucan formation ([3]; listed as panose) |
| --- | --- | --- | --- | --- | --- | --- |
| OC[C@H]1O[C@H](OC[C@H]2O[C@H](OC[C@H]3OC(O)[C@H](O)[C@@H](O)[C@@H]3O)[C@H](O)[C@@H](O)[C@@H]2O)[C@H](O)[C@@H](O)[C@@H]1O (stereo partly shown) [Isomaltotriose] | no organic acid formation | 7.0 | 36 µg/mL | 49% | 45-60% | – |
| OC[C@H]1O[C@H](OC[C@H]2O[C@H](O[C@H]3[C@H](O)[C@@H](O)C(O)O[C@@H]3CO)[C@H](O)[C@@H](O)[C@@H]2O)[C@H](O)[C@@H](O)[C@@H]1O (stereo partly drawn) [Panose, 4-O-α-isomaltosyl glucose] | no organic acid formation | 7.0 | 48 µg/mL | 47% | – | 45-60% |
